This data set in a line: AUC in mouse at 300 mg/kg, po. The class given is ADME, organism-based. Further details: dose 300 mg/kg, route oral. Conditions: plasma.

Consider `CCNC(=O)Nc1nc2cc(-c3cccnc3)c(=O)n(C(C)C)c2s1`, for which the AUC – broadly, the area under the concentration-time curve, a measure of exposure – was determined as 981 µM·h.

The record behind these values is ChEMBL document CHEMBL3112566, “Thiazolopyridone ureas as DNA gyrase B inhibitors: optimization of antitubercular activity and efficacy” (Bioorg Med Chem Lett, 2014).
